We go through 35 compounds from PMC8900595 (Journal of medicinal chemistry, 2021).

The structures appear in SMILES notation. Some results are limits rather than exact numbers.

One data set deals with A549 cells. To be noted: human.
The subject of another data set is WSN-PB2-Nanoluc virus. The class given is cell-based, influenza A virus.
For another data set, the system named is A/WSN/33. The data set is described as follows: microbe, parasite or virus in culture. The data set is classed as cell-based, influenza A virus.

In the case of `CCN(c1ccc(CC(=O)O)cc1)S(=O)(=O)c1cc(Cl)ccc1Cl` [compound 25, 2-(4-((2,5-Dichloro-N-ethylphenyl)sulfonamido)phenyl)acetic Acid], the “Cytotoxicity (MTT) CC10” value in the data set with A549 cells was above 25 µM.
Take `O=S(=O)(c1cc(Cl)ccc1Cl)N1CCCc2cc(Cl)ccc21` [compound 50, 6-Chloro-1-((2,5-dichlorophenyl)sulfonyl)-1,2,3,4-tetrahydroquinoline]: the “activity under the assay conditions” value in the data set with WSN-PB2-Nanoluc virus was “inactive”.
For `CCN(c1ccc(F)cc1F)S(=O)(=O)c1ccc(Cl)c(Cl)c1` [compound 36, 3,4-Dichloro-N-(2,4-difluorophenyl)-N-ethylbenzenesulfonamide], the “antiviral activity as described in SAR text” value (“antiviral activity” below) with A/WSN/33 is “inactive”.
In the data set with A/WSN/33, `C#CCN(c1ccccc1C)S(=O)(=O)c1cc(Cl)ccc1Cl` [compound 5, 2,5-Dichloro-N-(prop-2-yn-1-yl)-N-(o-tolyl)benzenesulfonamide] displayed a selectivity index above 13. Also, the “Cytotoxicity (MTT) CC10” value in the data set on A549 cells is above 5 µM.
Regarding `CCN(c1ccc(F)cc1)S(=O)(=O)c1cc(Cl)ccc1Cl` [compound 10], in the data set on A/WSN/33, the “antiviral activity” value is recorded as “similarly potent” and the selectivity index is listed as above 74. Also, the “Cytotoxicity (MTT) CC10” value with A549 cells was above 5 µM.
As to `CCN(c1c(F)cc(Cl)cc1F)S(=O)(=O)c1cc(Cl)ccc1Cl` [compound 23, 2,5-Dichloro-N-(4-chloro-2,6-difluorophenyl)-N-ethylbenzenesulfonamide], in the data set with A/WSN/33, the “antiviral activity” value is recorded as “less active” and the selectivity index is above 12.
For the compound `Cc1ccccc1NS(=O)(=O)c1cc(Cl)ccc1Cl` [compound 2, 2,5-Dichloro-N-(o-tolyl)benzenesulfonamide], in the data set on A/WSN/33, the “antiviral activity” value is on record as “substantially diminished activity”. In addition, in the data set with A549 cells, the “Cytotoxicity (MTT) CC10” value is above 5 µM.
Regarding `CCN(c1ccccc1Cl)S(=O)(=O)c1cc(Cl)ccc1Cl` [compound 8, 2,5-Dichloro-N-(2-chlorophenyl)-N-ethylbenzenesulfonamide], in the data set with A/WSN/33, the “antiviral activity” value is reported as “less effective” and the selectivity index is listed as above 33. Further, the “Cytotoxicity (MTT) CC10” value in the data set on A549 cells is above 5 µM.
Broadly, the IC50 is the concentration that gives 50% inhibition. Take `Cc1cc(Cl)ccc1N(CCF)S(=O)(=O)c1cc(Cl)ccc1Cl` [compound 18, 2,5-Dichloro-N-(4-chloro-2-methylphenyl)-N-(2-fluoroethyl)-benzenesulfonamide]: in the data set with A/WSN/33, the “antiviral activity” value is given as “lower activity” and the selectivity index is above 9. For the same compound, the half-inhibitory concentration (IC50) in the data set on A/WSN/33 (Influenza A virus, WSN, A549, 24 h, read-out: viral replication IC50) is 0.55 µM. Moreover, the “Cytotoxicity (MTT) CC10” value in the data set on A549 cells is above 5 µM.
With `Cc1cc(Cl)ccc1N(C(F)F)S(=O)(=O)c1cc(Cl)ccc1Cl` [compound 19, 2,5-Dichloro-N-(4-chloro-2-methylphenyl)-N-(difluoromethyl)benzenesulfonamide], in the data set with A/WSN/33, the “antiviral activity” value is “lower activity” and the selectivity index is above 4. In addition, in the data set on A549 cells, the “Cytotoxicity (MTT) CC10” value was above 5 µM.
Regarding `CCN(c1ccccc1C#N)S(=O)(=O)c1cc(Cl)ccc1Cl` [compound 9, 2,5-Dichloro-N-(2-cyanophenyl)-N-ethylbenzenesulfonamide], in the data set on A/WSN/33, the “antiviral activity” value is “less effective” and the selectivity index is given as above 29. Moreover, in the data set on A549 cells, the “Cytotoxicity (MTT) CC10” value was above 5 µM.
For `C#CCN(c1ccc(Cl)cc1C)S(=O)(=O)c1cc(Cl)ccc1Cl` [compound 14, 2,5-Dichloro-N-(4-chloro-2-methylphenyl)-N-(prop-2-yn-1-yl)benzenesulfonamide], in the data set with A/WSN/33, the “antiviral activity” value is listed as “generally more potent” and the selectivity index is on record as above 42. For the same compound, in the data set with A549 cells, the “Cytotoxicity (MTT) CC10” value was above 5 µM.
In the case of `CCN(c1ccc(F)cc1F)S(=O)(=O)c1cc(Cl)cc(Cl)c1` [compound 34, 3,5-Dichloro-N-(2,4-difluorophenyl)-N-ethylbenzenesulfonamide], in the data set on A/WSN/33, the “less active than 1–55” value is given as above 10 fold.
`CCN(c1ccc(F)cc1F)S(=O)(=O)c1cccc(Cl)c1Cl` [compound 37, 2,3-Dichloro-N-(2,4-difluorophenyl)-N-ethylbenzenesulfonamide]: the “antiviral activity” value with A/WSN/33 is “inactive”.
In the data set on A/WSN/33, `CCOC(=O)Cc1ccc(N(CC)S(=O)(=O)c2cc(Cl)ccc2Cl)cc1` [compound 24, Ethyl 2-(4-((2,5-Dichloro-N-ethylphenyl)sulfonamido)phenyl)-acetate] gave a selectivity index above 63. Besides, the “Cytotoxicity (MTT) CC10” value in the data set with A549 cells was above 5 µM.
`CCN(c1ccc(CC(=O)N2CCN(C)CC2)cc1)S(=O)(=O)c1cc(Cl)ccc1Cl` [compound 29, 2,5-Dichloro-N-ethyl-N-(4-(2-(4-methylpiperazin-1-yl)-2-oxoethyl)phenyl)benzenesulfonamide]: in the data set with A549 cells, the “Cytotoxicity (MTT) CC10” value is above 25 µM.
On to `CCN(c1ccc(F)cc1F)S(=O)(=O)c1ccccc1` [compound 30, N-(2,4-Difluorophenyl)-N-ethylbenzenesulfonamide], for which the “antiviral activity” value with A/WSN/33 is “inactive”.
Consider `CCN(c1ccc(F)cc1F)S(=O)(=O)c1ccc(Cl)cc1Cl` [compound 33, 2,4-Dichloro-N-(2,4-difluorophenyl)-N-ethylbenzenesulfonamide], for which the “antiviral activity” value in the data set with A/WSN/33 was “inactive”.
Consider `CCN(c1ccccc1)S(=O)(=O)c1cc(Cl)ccc1Cl` [compound 7, 2,5-Dichloro-N-ethyl-N-phenylbenzenesulfonamide], for which, in the data set with A/WSN/33, the “loss of activity on removing the 2-methyl group” value is recorded as “greater than 10 ×” and the selectivity index is above 6. For the same compound, in the data set on A549 cells, the “Cytotoxicity (MTT) CC10” value is above 5 µM.
On to `C=CCN(c1ccc(Cl)cc1C)S(=O)(=O)c1cc(Cl)ccc1Cl` [compound 13, N-Allyl-2,5-dichloro-N-(4-chloro-2-methylphenyl)benzenesulfonamide], for which, in the data set with A/WSN/33, the “antiviral activity” value is “generally more potent” and the selectivity index is listed as above 135. The “Cytotoxicity (MTT) CC10” value in the data set on A549 cells was above 5 µM.
The corresponding values for `CCN(c1c(C)cc(Cl)cc1Cl)S(=O)(=O)c1cc(Cl)ccc1Cl` [compound 22, 2,5-Dichloro-N-(2,4-dichloro-6-methylphenyl)-N-ethylbenzenesulfonamide] are “less active”, above 13 and above 5 µM.
Take `CCN(c1ccc(CCN)cc1)S(=O)(=O)c1cc(Cl)ccc1Cl` [compound 27, N-(4-(2-Aminoethyl)phenyl)-2,5-dichloro-N-ethylbenzenesulfonamide]: in the data set on A549 cells, the “Cytotoxicity (MTT) CC10” value was above 25 µM.
In the case of `COCCN(c1ccc(Cl)cc1C)S(=O)(=O)c1cc(Cl)ccc1Cl` [compound 16, 2,5-Dichloro-N-(4-chloro-2-methylphenyl)-N-(2-methoxyethyl)-benzenesulfonamide], in the data set with A/WSN/33, the “antiviral activity” value is listed as “lower activity” and the selectivity index is above 4. In the data set with A549 cells, the “Cytotoxicity (MTT) CC10” value is above 5 µM.
As for `CCN(c1ccc(CCO)cc1)S(=O)(=O)c1cc(Cl)ccc1Cl` [compound 26, 2,5-Dichloro-N-ethyl-N-(4-(2-hydroxyethyl)phenyl)-benzenesulfonamide], the “Cytotoxicity (MTT) CC10” value in the data set on A549 cells is above 25 µM.
With `CCN(c1ccc(F)cc1F)S(=O)(=O)c1cccc(Cl)c1` [compound 32, 3-Chloro-N-(2,4-difluorophenyl)-N-ethylbenzenesulfonamide], in the data set on A/WSN/33, the “antiviral activity” value is on record as “maintained activity” and the “lower level of activity than 21” value is on record as 10 fold.
Take `Cc1ccccc1N(C(C)C)S(=O)(=O)c1cc(Cl)ccc1Cl` [compound 6, 2,5-Dichloro-N-isopropyl-N-(o-tolyl)benzenesulfonamide]: in the data set with A/WSN/33, the “loss of activity compared to compound 1” value is reported as “greater than 10 fold” and the selectivity index was above 3. For the same compound, in the data set on A549 cells, the “Cytotoxicity (MTT) CC10” value was above 5 µM.
Take `Cc1ccccc1N(C)S(=O)(=O)c1cc(Cl)ccc1Cl` [compound 3, 2,5-Dichloro-N-methyl-N-(o-tolyl)benzenesulfonamide]: the “antiviral activity” value in the data set on A/WSN/33 is given as “substantially diminished activity”. Further, the “Cytotoxicity (MTT) CC10” value in the data set on A549 cells is above 5 µM.
For `Cc1cc(Cl)ccc1N(CC1CC1)S(=O)(=O)c1cc(Cl)ccc1Cl` [compound 15, 2,5-Dichloro-N-(4-chloro-2-methylphenyl)-N-(cyclopropylmethyl)benzenesulfonamide], in the data set with A/WSN/33, the “less active than the N-ethyl version (12)” value was “greater than 10 ×” and the selectivity index is on record as above 10. In the data set with A549 cells, the “Cytotoxicity (MTT) CC10” value is above 5 µM.
Take `CCN(c1ccc(F)cc1F)S(=O)(=O)c1c(Cl)cccc1Cl` [compound 35, 2,6-Dichloro-N-(2,4-difluorophenyl)-N-ethylbenzenesulfonamide]: the “antiviral activity” value with A/WSN/33 is “inactive”.
For the compound `CCN(c1ccc(CCNC(C)=O)cc1)S(=O)(=O)c1cc(Cl)ccc1Cl` [compound 28, N-(4-((2,5-Dichloro-N-ethylphenyl)sulfonamido)phenethyl)-acetamide], the “Cytotoxicity (MTT) CC10” value in the data set with A549 cells is above 25 µM.
Regarding `CCN(c1ccc(Cl)cc1F)S(=O)(=O)c1cc(Cl)ccc1Cl` [compound 20, 2,5-Dichloro-N-(4-chloro-2-fluorophenyl)-N-ethylbenzenesulfonamide], the selectivity index in the data set with A/WSN/33 is recorded as above 33. In addition, the “Cytotoxicity (MTT) CC10” value in the data set with A549 cells was above 5 µM.
With `CCN(c1ccc(F)cc1F)S(=O)(=O)c1ccccc1Cl` [compound 31, 2-Chloro-N-(2,4-difluorophenyl)-N-ethylbenzenesulfonamide], the “antiviral activity” value with A/WSN/33 was “inactive”.
For `CCN(c1ccc(C)cc1)S(=O)(=O)c1cc(Cl)ccc1Cl` [compound 11, 2,5-Dichloro-N-ethyl-N-(p-tolyl)benzenesulfonamide], in the data set on A/WSN/33, the “antiviral activity” value is recorded as “well tolerated” and the selectivity index is above 298. Besides, in the data set on A549 cells, the “Cytotoxicity (MTT) CC10” value is above 25 µM.
Take `Cc1cc(Cl)ccc1N(CCO)S(=O)(=O)c1cc(Cl)ccc1Cl` [compound 17, 2,5-Dichloro-N-(4-chloro-2-methylphenyl)-N-(2-hydroxyethyl)benzenesulfonamide]: the “antiviral activity” value with A/WSN/33 is “lower activity”. The “Cytotoxicity (MTT) CC10” value in the data set with A549 cells was above 5 µM.
Compound `C=CCN(c1ccccc1C)S(=O)(=O)c1cc(Cl)ccc1Cl` [compound 4, N-Allyl-2,5-dichloro-N-(o-tolyl)benzenesulfonamide] showed a selectivity index in the data set with A/WSN/33 above 42. The “Cytotoxicity (MTT) CC10” value in the data set with A549 cells is above 5 µM.
